Data on 14 compounds can be found in patent publication US20250129070A1, “BIFUNCTIONAL ANDROGEN RECEPTOR COMPOUNDS” (priority 2023, published 2025).

Experiment [1] deals with AR / CBP ternary complex. The experiment can be described thus: Ternary complex formation assay (sandwich ELISA, AR capture / CBP detection) in VCaP cell lysates. Format: cell-based. Conditions: 1.5 hours treatment, sandwich ELISA (AR capture, CBP or p300 detection). Summed up:
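Anti-AR (AR 441)-coated plates capture AR from lysates of VCaP cells grown ≥3 days at 50K/well in 5% charcoal-stripped FBS, dosed with bifunctional for 1.5 h and lysed 30 min at 4 °C. Co-captured CBP/p300 is probed with rabbit mAb and HRP anti-rabbit, then QuantaRed fluorescence (570/585) is read at 0, 5 and 15 min.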
Background: An ELISA detects its analyte on a solid surface through an enzyme-linked reagent.

Experiment [2] has as its system VCaP cells. The experiment can be described thus: VCaP growth inhibition assay. The experiment is classed as cell-based. Conditions: 30 pM R1881, 9 days, CTG. The procedure, abridged:
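Growth read by CTG luminescence after 9-day exposure to compound (final 100 nM–10 fM, 1:5 steps) plus 30 pM R1881, in phenol red-free DMEM with 5% CSS. Cells pre-incubated 72 h before dosing; IC50 by nonlinear 4-parameter regression.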

The EC50 is the concentration giving half of the maximal effect. A low value points to greater potency. The IC50 is the concentration that inhibits the measured activity by half. In experiment [1], `COc1cc(OC2C(C)(C)C(NC(=O)c3ccc(N4CCC5(CCC(n6nc(N7CCCc8cc(-c9cnn(C)c9)c(C(F)F)cc87)c7c6CCN(C(C)=O)C7)CC5)C4)cc3)C2(C)C)ccc1C#N` (stereo not shown) [Compound 406, 4-[8-[5-acetyl-3-[7-(difluoromethyl)-6-(1-methylpyrazol-4-yl)-3,4-dihydro-2H-quinolin-1-yl]-6,7-dihydro-4H-pyrazolo[4,3-c]pyridin-1-yl]-2-azaspiro[4.5]decan-2-yl]-N-[3-(4-cyano-3-methoxy-phenoxy)-2,2,4,4-tetramethyl-cyclobutyl]benzamide] had a half-maximal effective concentration (EC50) of 1 to 10 nM. For the same compound, the IC50 in experiment [2] is 1 to 100 nM.

The compound `CC(=O)N1CCc2c(c(N3CCCc4cc(-c5cnn(C)c5)c(C(F)F)cc43)nn2C2CCN(C(=O)C3CCN(c4ccc(C(=O)NC5C(C)(C)C(Oc6ccc(C#N)c(Cl)c6)C5(C)C)nn4)CC3)CC2)C1` (stereo not shown) [Compound 114, 6-[4-[4-[5-acetyl-3-[7-(difluoromethyl)-6-(1-methylpyrazol-4-yl)-3,4-dihydro-2H-quinolin-1-yl]-6,7-dihydro-4H-pyrazolo[4,3-c]pyridin-1-yl]piperidine-1-carbonyl]-1-piperidyl]-N-[3-(3-chloro-4-cyano-phenoxy)-2,2,4,4-tetramethyl-cyclobutyl]pyridazine-3-carboxamide] came in with an EC50 in experiment [1] of less than 1 nM. This compound gave a 50% inhibitory concentration (IC50) in experiment [2] of no more than 0.1 nM.

As for `COc1cc(OC2C(C)(C)C(NC(=O)c3ccc(N4CCC(CN5CCC(n6nc(N7CCCc8cc(-c9cnn(C)c9)c(C(F)F)cc87)c7c6CCN(C(C)=O)C7)CC5)(OC)CC4)cc3)C2(C)C)ccc1C#N` (stereo not shown) [Compound 264, 4-[4-[[4-[5-acetyl-3-[7-(difluoromethyl)-6-(1-methylpyrazol-4-yl)-3,4-dihydro-2H-quinolin-1-yl]-6,7-dihydro-4H-pyrazolo[4,3-c]pyridin-1-yl]-1-piperidyl]methyl]-4-methoxy-1-piperidyl]-N-[3-(4-cyano-3-methoxy-phenoxy)-2,2,4,4-tetramethyl-cyclobutyl]benzamide], in experiment [1], the 50% effective concentration (EC50) was less than 1 nM. In addition, the half-maximal inhibitory concentration (IC50) in experiment [2] lay in the range of 0.1 to 1 nM.

The compound `COc1cc(OC2C(C)(C)C(NC(=O)c3ccc(N4CC5(CCN(C6CCC(n7nc(N8CCCc9cc(-c%10cnn(C)c%10)c(C(F)F)cc98)c8c7CCN(C(C)=O)C8)CC6)CC5)C4)cc3)C2(C)C)ccc1C#N` (stereo not shown) [Compound 288, 4-[7-[4-[5-acetyl-3-[7-(difluoromethyl)-6-(1-methylpyrazol-4-yl)-3,4-dihydro-2H-quinolin-1-yl]-6,7-dihydro-4H-pyrazolo[4,3-c]pyridin-1-yl]cyclohexyl]-2,7-diazaspiro[3.5]nonan-2-yl]-N-[3-(4-cyano-3-methoxy-phenoxy)-2,2,4,4-tetramethyl-cyclobutyl]benzamide] registered an EC50 in experiment [1] of less than 1 nM. The compound also came in with an IC50 in experiment [2] of no more than 0.1 nM.

`CC(=O)N1CCc2c(c(N3CCCc4cnccc43)nn2C2CCN(C(=O)C3CCN(c4ncc(C(=O)NC5C(C)(C)C(Oc6ccc(C#N)c(Cl)c6)C5(C)C)cn4)CC3)CC2)C1` (stereo not shown) [Compound 128, 2-[4-[4-[5-acetyl-3-(3,4-dihydro-2H-1,6-naphthyridin-1-yl)-6,7-dihydro-4H-pyrazolo[4,3-c]pyridin-1-yl]piperidine-1-carbonyl]-1-piperidyl]-N-[3-(3-chloro-4-cyano-phenoxy)-2,2,4,4-tetramethyl-cyclobutyl]pyrimidine-5-carboxamide]: in experiment [1], the EC50 is greater than 100 nM. Moreover, in experiment [2], the concentration for half-maximal inhibition (IC50) is greater than 100 nM.

For the compound `COc1cc(OC2C(C)(C)C(NC(=O)c3ccc(N4CCC(CCc5ccc(-c6cc7cccc(-c8nn(C9CCOCC9)c9c8CN(C(C)=O)CC9)c7cn6)cn5)CC4)cc3)C2(C)C)ccc1C#N` (stereo not shown) [Compound 245, 4-[4-[2-[5-[8-(5-acetyl-1-tetrahydropyran-4-yl-6,7-dihydro-4H-pyrazolo[4,3-c]pyridin-3-yl)-3-isoquinolyl]-2-pyridyl]ethyl]-1-piperidyl]-N-[3-(4-cyano-3-methoxy-phenoxy)-2,2,4,4-tetramethyl-cyclobutyl]benzamide], the EC50 in experiment [1] is less than 1 nM. In addition, in experiment [2], the IC50 lay within 0.1 to 1 nM.

`COc1cc(OC2C(C)(C)C(NC(=O)c3ccc(N4CCC(CN5CCC(n6nc(-c7cccc8cc(-c9cnn(C)c9)ncc78)c7c6CCN(C(C)=O)C7)CC5)CC4)cc3)C2(C)C)ccc1C#N` (stereo not shown) [Compound 253, 4-[4-[[4-[5-acetyl-3-[3-(1-methylpyrazol-4-yl)-8-isoquinolyl]-6,7-dihydro-4H-pyrazolo[4,3-c]pyridin-1-yl]-1-piperidyl]methyl]-1-piperidyl]-N-[3-(4-cyano-3-methoxy-phenoxy)-2,2,4,4-tetramethyl-cyclobutyl]benzamide]: the concentration for a half-maximal effect (EC50) in experiment [1] is less than 1 nM. The IC50 in experiment [2] is no more than 0.1 nM.

In the case of `COc1cc(OC2C(C)(C)C(NC(=O)c3ccc(N4CC5(CC(N6CCC(n7nc(N8CCCc9cc(-c%10cnn(C)c%10)c(C(F)F)cc98)c8c7CCN(C(C)=O)C8)CC6)C5)C4)cc3)C2(C)C)ccc1C#N` (stereo not shown) [Compound 349, 4-[6-[4-[5-acetyl-3-[7-(difluoromethyl)-6-(1-methylpyrazol-4-yl)-3,4-dihydro-2H-quinolin-1-yl]-6,7-dihydro-4H-pyrazolo[4,3-c]pyridin-1-yl]-1-piperidyl]-2-azaspiro[3.3]heptan-2-yl]-N-[3-(4-cyano-3-methoxy-phenoxy)-2,2,4,4-tetramethyl-cyclobutyl]benzamide], in experiment [1], the EC50 was less than 1 nM. This compound came in with an IC50 in experiment [2] of no more than 0.1 nM.

`CC(=O)N1CCc2c(c(N3CCCc4cc(-c5cnn(C)c5)c(C(F)F)cc43)nn2C2CCN(CC3C(C)CN(c4ncc(C(=O)NC5C(C)(C)C(Oc6ccc(C#N)c(C)c6C)C5(C)C)cn4)CC3C)CC2)C1` (stereo not shown) [Compound 461, 2-[4-[[4-[5-acetyl-3-[7-(difluoromethyl)-6-(1-methylpyrazol-4-yl)-3,4-dihydro-2H-quinolin-1-yl]-6,7-dihydro-4H-pyrazolo[4,3-c]pyridin-1-yl]-1-piperidyl]methyl]-3,5-dimethyl-1-piperidyl]-N-[3-(4-cyano-2,3-dimethyl-phenoxy)-2,2,4,4-tetramethyl-cyclobutyl]pyrimidine-5-carboxamide] showed an EC50 in experiment [1] of less than 1 nM. Moreover, the IC50 in experiment [2] is no more than 0.1 nM.

`C[C@@H]1CC(=O)Nc2cccc(-c3ccc4c(c3)c(-c3cnn(C)c3)nn4C3CCN(c4ncc(C(=O)NC5C(C)(C)C(Oc6ccc(C#N)c(Cl)c6)C5(C)C)cn4)CC3)c2N1` (stereo partly drawn) [Compound 60, N-[3-(3-chloro-4-cyano-phenoxy)-2,2,4,4-tetramethyl-cyclobutyl]-2-[4-[5-[(4R)-4-methyl-2-oxo-1,3,4,5-tetrahydro-1,5-benzodiazepin-6-yl]-3-(1-methylpyrazol-4-yl)indazol-1-yl]-1-piperidyl]pyrimidine-5-carboxamide] had a half-maximal effective concentration (EC50) in experiment [1] greater than 100 nM. In addition, in experiment [2], the IC50 is greater than 100 nM.

For `CC(=O)N1CCc2c(c(N3CCCc4cc(-c5cnn(C)c5)c(C(F)F)cc43)nn2C2CCN(CC3CCN(c4ncc(C(=O)NC5C(C)(C)C(Oc6ccc(C#N)c(Cl)c6)C5(C)C)cn4)CC3)C2)C1` (stereo not shown) [Compound 21, 2-[4-[[3-[5-acetyl-3-[7-(difluoromethyl)-6-(1-methylpyrazol-4-yl)-3,4-dihydro-2H-quinolin-1-yl]-6,7-dihydro-4H-pyrazolo[4,3-c]pyridin-1-yl]pyrrolidin-1-yl]methyl]-1-piperidyl]-N-[3-(3-chloro-4-cyano-phenoxy)-2,2,4,4-tetramethyl-cyclobutyl]pyrimidine-5-carboxamide], the half-maximal effective concentration (EC50) in experiment [1] lay within 1 to 10 nM. Also, the IC50 in experiment [2] was in the range of 0.1 to 1 nM.

For the compound `COc1cc(OC2C(C)(C)C(NC(=O)c3ccc(OC4CC5(C4)CC(N4CCC(n6nc(N7CCCc8cc(-c9cnn(C)c9)c(C(F)F)cc87)c7c6CCN(C(C)=O)C7)CC4)C5)cc3)C2(C)C)ccc1C#N` (stereo not shown) [Compound 386, 4-[6-[4-[5-acetyl-3-[7-(difluoromethyl)-6-(1-methylpyrazol-4-yl)-3,4-dihydro-2H-quinolin-1-yl]-6,7-dihydro-4H-pyrazolo[4,3-c]pyridin-1-yl]-1-piperidyl]spiro[3.3]heptan-2-yl]oxy-N-[3-(4-cyano-3-methoxy-phenoxy)-2,2,4,4-tetramethyl-cyclobutyl]benzamide], the EC50 in experiment [1] was less than 1 nM. Moreover, the IC50 in experiment [2] lay in the range of 0.1 to 1 nM.

The compound `COc1cc(OC2C(C)(C)C(NC(=O)c3ccc(N4CCC(OC5CCC(n6nc(N7CCCc8cc(-c9cnn(C)c9)c(C(F)F)cc87)c7c6CCN(C(C)=O)C7)CC5)CC4)cc3)C2(C)C)ccc1C#N` (stereo not shown) [Compound 308, 4-[4-[4-[5-acetyl-3-[7-(difluoromethyl)-6-(1-methylpyrazol-4-yl)-3,4-dihydro-2H-quinolin-1-yl]-6,7-dihydro-4H-pyrazolo[4,3-c]pyridin-1-yl]cyclohexoxy]-1-piperidyl]-N-[3-(4-cyano-3-methoxy-phenoxy)-2,2,4,4-tetramethyl-cyclobutyl]benzamide] registered an EC50 in experiment [1] of less than 1 nM. Further, the half-maximal inhibitory concentration (IC50) in experiment [2] is no more than 0.1 nM.

Turning to `COc1cc(OC2C(C)(C)C(NC(=O)c3ccc(N4CCC(CCc5ccc(-c6cc7cccc(-c8nn(C9CCOCC9)c9c8CN(C(C)=O)CC9)c7cn6)cc5)CC4)cc3)C2(C)C)ccc1C#N` (stereo not shown) [Compound 254, 4-[4-[2-[4-[8-(5-acetyl-1-tetrahydropyran-4-yl-6,7-dihydro-4H-pyrazolo[4,3-c]pyridin-3-yl)-3-isoquinolyl]phenyl]ethyl]-1-piperidyl]-N-[3-(4-cyano-3-methoxy-phenoxy)-2,2,4,4-tetramethyl-cyclobutyl]benzamide], the EC50 in experiment [1] was less than 1 nM. In experiment [2], the half-inhibitory concentration (IC50) lay within 0.1 to 1 nM.
